According to US5763599A, “Nucleoside derivatives with photolabile protective groups” (Pfleiderer; Wolfgang, priority 1994, dated 1998):
Blank lines part the entries; values can stand above or below the compound they belong to.

Experiment: Irradiation experiments: photolytic cleavage of the 5' protective group with polychromatic light, followed by HPLC
Assay type: physicochemical
Conditions: for Photolytic cleavage of the 5' protective group in relation to rapidity and high yields: compared with V1 and V2; for Concentration Thymidine (released): from 0.2 mM CNPEOC-T; for Relative Quantity Thymidine (released): of 0.2 mM; for Concentration CNPEOC-T: start 0.2 mM; for Relative Quantity CNPEOC-T: 200 µM
Method: The corresponding protected thymidine nucleosides were irradiated by means of an irradiation apparatus which was composed of a Hg very high pressure lamp (OSRAM HBO, 200 W), a focusing lens, a shutter with an electronic control device for setting the shutter times and a temperature-controlled cuvette holder. A heat filter (0.032 molar CuSO4 solution) between the lamp and sample was also installed. 0.2 mM solutions of the nucleosides in MeOH/H2 O 1:1 were irradiated at 20° to 30° C. with the entire lamp spectrum (polychromatic light with wavelengths of λ>289 nm).
The cleavage of the protective groups was followed quantitatively by HPLC. The HPLC unit comprised of the following devices: Merck-Hitachi L-6200 Intelligent Pump, Merck-Hitachi Intelligent Auto Sampler AS 4000, Merck-Hitachi Interface, Merck Lichrosorb column RP 18, 125×5 mm. The ultra-violet/VIS spectrophotometer was a Kontron UVIKON 730 LC. Detection took place at 260 nm. The integration of the chromatogram signals took place by means of Merck software: D-6000 HPLC Manager.
MeOH/H2 O mixtures were always used for chromatography. The following gradient was used (flow: 1 ml/min)
Calibration curves for thymidine and the protected nucleosides were compiled by injecting dilution series into the chromatograph.
Samples (loop volume: 20 μl) were taken from the irradiated solutions after specific time intervals. Each sample was injected twice into the chromatograph. The mean values of these dual determinations were used for further evaluation. The peak areas of the chromatograms were converted into the concentrations of protected nucleosides or of thymidine by means of the above-compiled calibration curves. The concentration values obtained in this manner were divided by the maximum achievable concentration of 0.2 mM (=concentration of the protected nucleosides at the start of irradiation) and plotted against the irradiation time as a "relative quantity" in percent.
Linear regression yielded: y=4.96777·10^-4 +3.85757 10^-7 ·x with x=peak area and y=thymidine concentration; r=0.9999
Linear regression yielded: y=9.2999·10^-4 +3.22516 10^-7 ·x with x=peak area and y=CNPEOC-T concentration; r=0.9998.
With regard to several other derivatives according to the invention and to the two comparative compounds V1 (5'-O-(2-nitrobenzyloxycarbonyl)thymidine) and V2 (5'-O-(2.4dinitrobenzyloxycarbonyl)thymidine), the following table summarizes their results obtained according to the above method and evaluated in relation to half-life and yield percentage of deprotected nucleoside derivative, in relation to the maximum concentration achievable): […]

[1] = 0.2 mM in MeOH/H2O 1:1, 20° to 30° C., λ>289 nm

Compound: Cc1cn([C@H]2C[C@H](O)[C@@H](COC(=O)OCc3ccccc3[N+](=O)[O-])O2)c(=O)[nH]c1=O [Compound V1, 5'-O-(2-nitrobenzyloxycarbonyl)thymidine, reference compound]
Yield of deprotected nucleoside, in relation to maximum concentration achievable [1]: 55 % Cmax
t0.5 (half-life of photolytic deprotection) (meoh/h2o 1:1, 200 µM): 2.5 min

Compound: COc1cc(CCOC(=O)OC[C@H]2O[C@@H](n3cc(C)c(=O)[nH]c3=O)C[C@@H]2O)c([N+](=O)[O-])cc1OC [Compound 9, 5'-O-(2-(4,5-dimethoxy-2-nitrophenyl)ethoxycarbonyl)thymidine]
Yield of deprotected nucleoside, in relation to maximum concentration achievable [1]: 77 % Cmax
t0.5 (half-life of photolytic deprotection) (meoh/h2o 1:1, 200 µM): 7.2 min

Compound: Cc1cn([C@H]2C[C@H](O)[C@@H](COC(=O)OCc3ccc([N+](=O)[O-])cc3[N+](=O)[O-])O2)c(=O)[nH]c1=O [Compound V2, 5'-O-(2.4dinitrobenzyloxycarbonyl)thymidine, reference compound]
Yield of deprotected nucleoside, in relation to maximum concentration achievable [1]: 38 % Cmax
t0.5 (half-life of photolytic deprotection) [1]: 3.3 min

Compound: Cc1cn([C@H]2C[C@H](O)[C@@H](COC(=O)OCC(C)c3ccccc3[N+](=O)[O-])O2)c(=O)[nH]c1=O (some centres unmarked) [Compound 10, 5'-O-(2-(2-nitrophenyl)propoxycarbonyl)thymidine]
Yield of deprotected nucleoside, in relation to maximum concentration achievable [1]: 89 % Cmax
Photolytic cleavage of the 5' protective group in relation to rapidity and high yields: clearly superior
t0.5 (half-life of photolytic deprotection) (meoh/h2o 1:1, 200 µM): 0.7 min

Compound: Cc1cn([C@H]2C[C@H](O)[C@@H](COC(=O)OCCc3c([N+](=O)[O-])cccc3[N+](=O)[O-])O2)c(=O)[nH]c1=O [Compound 2, 5'-O-(2-(2,6-dinitrophenyl)ethoxycarbonyl)thymidine]
Yield of deprotected nucleoside, in relation to maximum concentration achievable [1]: 92 % Cmax
t0.5 (half-life of photolytic deprotection) [1]: 1.37 min

Compound: Cc1cn([C@H]2C[C@H](O)[C@@H](COC(=O)OCC(Cl)c3ccccc3[N+](=O)[O-])O2)c(=O)[nH]c1=O (some centres unmarked) [Compound 11, 5'-O-(2-chloro-2-(2-nitrophenyl)ethoxycarbonyl)thymidine]
Yield of deprotected nucleoside, in relation to maximum concentration achievable [1]: 97 % Cmax
Photolytic cleavage of the 5' protective group in relation to rapidity and high yields: clearly superior
t0.5 (half-life of photolytic deprotection) (meoh/h2o 1:1, 200 µM): 1.46 min

Now from value to compound:

Yield of deprotected nucleoside, in relation to maximum concentration achievable [1]: 77 % Cmax
t0.5 (half-life of photolytic deprotection) (meoh/h2o 1:1, 200 µM): 1.68 min
Compound: Cc1cn([C@H]2C[C@H](O)[C@@H](COC(=O)OCCc3c(Cl)cc(Cl)cc3[N+](=O)[O-])O2)c(=O)[nH]c1=O [Compound 8, 5'-O-(2-(2,4-dichloro-6-nitrophenyl)ethoxycarbonyl)thymidine]

Yield of deprotected nucleoside, in relation to maximum concentration achievable [1]: 70 % Cmax
t0.5 (half-life of photolytic deprotection) (meoh/h2o 1:1, 200 µM): 2.3 min
Compound: Cc1cn([C@H]2C[C@H](O)[C@@H](COC(=O)OCCc3ccc(Cl)cc3[N+](=O)[O-])O2)c(=O)[nH]c1=O [Compound 6, 5'-O-(2-(4-chloro-2-nitrophenyl)ethoxycarbonyl)thymidine]

Yield of deprotected nucleoside, in relation to maximum concentration achievable [1]: 89 % Cmax
t0.5 (half-life of photolytic deprotection) (meoh/h2o 1:1, 200 µM): 1.71 min
Compound: Cc1cn([C@H]2C[C@H](O)[C@@H](COC(=O)OCCc3c(Br)cccc3[N+](=O)[O-])O2)c(=O)[nH]c1=O [Compound 5, 5'-O-(2-(2-bromo-6-nitrophenyl)ethoxycarbonyl)thymidine]

Yield of deprotected nucleoside, in relation to maximum concentration achievable [1]: 79 % Cmax
t0.5 (half-life of photolytic deprotection) (meoh/h2o 1:1, 200 µM): 2.6 min
Compound: Cc1cn([C@H]2C[C@H](O)[C@@H](COC(=O)OCCc3ccccc3[N+](=O)[O-])O2)c(=O)[nH]c1=O [Compound 1, 5'-O-(2-(2-nitrophenyl)ethoxycarbonyl)thymidine]

Yield of deprotected nucleoside, in relation to maximum concentration achievable [1]: 86 % Cmax
Concentration Thymidine (released) (irradiation time 1 min): 32.7 µM
Relative Quantity Thymidine (released) (irradiation time 1 min): 16.3%
Concentration CNPEOC-T (irradiation time 1 min): 148.9 µM
Concentration Thymidine (released) (irradiation time 2 min): 85.8 µM
Relative Quantity Thymidine (released) (irradiation time 2 min): 42.9%
Concentration CNPEOC-T (irradiation time 2 min): 82.6 µM
Concentration Thymidine (released) (irradiation time 3 min): 88.8 µM
Relative Quantity Thymidine (released) (irradiation time 3 min): 44.4%
Concentration CNPEOC-T (irradiation time 3 min): 81.9 µM
Concentration Thymidine (released) (irradiation time 5 min): 127.8 µM
Relative Quantity Thymidine (released) (irradiation time 5 min): 63.9%
Concentration CNPEOC-T (irradiation time 5 min): 28.1 µM
Concentration Thymidine (released) (irradiation time 15 min): 167.3 µM
Relative Quantity Thymidine (released) (irradiation time 15 min): 83.7%
Concentration CNPEOC-T (irradiation time 15 min): 8.8 µM
Concentration Thymidine (released) (irradiation time 30 min): 169.3 µM
Relative Quantity Thymidine (released) (irradiation time 30 min): 84.6%
Concentration CNPEOC-T (irradiation time 30 min): 0 µM
Concentration Thymidine (released) (irradiation time 60 min): 171.1 µM
Relative Quantity Thymidine (released) (irradiation time 60 min): 85.5%
Concentration CNPEOC-T (irradiation time 60 min): 0 µM
Concentration Thymidine (released) (irradiation time 120 min): 157.7 µM
Relative Quantity Thymidine (released) (irradiation time 120 min): 78.9%
Concentration CNPEOC-T (irradiation time 120 min): 0 µM
t0.5 (half-life of photolytic deprotection) (meoh/h2o 1:1, 200 µM): 1.71 min
Relative Quantity CNPEOC-T (meoh/h2o 1:1, 1 min): 74.5%
Relative Quantity CNPEOC-T (meoh/h2o 1:1, 2 min): 41.3%
Relative Quantity CNPEOC-T (meoh/h2o 1:1, 0.05 h): 40.9%
Relative Quantity CNPEOC-T (meoh/h2o 1:1, 5 min): 14.0%
Relative Quantity CNPEOC-T (meoh/h2o 1:1, 0.25 h): 4.4%
Relative Quantity CNPEOC-T (meoh/h2o 1:1, 0.5 h): 0%
Relative Quantity CNPEOC-T (meoh/h2o 1:1, 1 h): 0%
Relative Quantity CNPEOC-T (meoh/h2o 1:1, 2 h): 0%
Compound: Cc1cn([C@H]2C[C@H](O)[C@@H](COC(=O)OCCc3c(Cl)cccc3[N+](=O)[O-])O2)c(=O)[nH]c1=O [Compound 4, 5'-O-(2-(2-chloro-6-nitrophenyl)ethoxycarbonyl)thymidine]
